# The source made the active and inactive calls. The calls are words filed in the database; no cut-off is given here.
# Assays:
# Setaria viridis [1] = experiment: Post-emergent herbicidal activity against Setaria viridis (green foxtail) at <2 g/ha measured after 13 days under green house conditions; assay type: functional, organism-based
# Oryza sativa [2] = experiment: Phytotoxicity against Oryza sativa (rice) plant at two to four-leaf growth stage at 500 g/ha measured after 13 days under green house conditions; assay type: organism-based; conditions: in vivo, 312 h
# Avena fatua [3] = experiment: Post-emergent herbicidal activity against Avena fatua at 500 g/ha measured after 13 days under green house conditions; assay type: functional
# Echinochloa crus-galli [4] = experiment: Post-emergent herbicidal activity against Echinochloa crus-galli (barnyard grass) at <2 g/ha measured after 13 days under green house conditions; assay type: functional, organism-based
# Triticum aestivum [5] = experiment: Phytotoxicity against Triticum aestivum (wheat) plant at two to four-leaf growth stage at 500 g/ha measured after 13 days under green house conditions; assay type: organism-based; conditions: in vivo, 312 h
# Sorghum halepense [6] = experiment: Post-emergent herbicidal activity against Sorghum halepense (Johnson grass) at 500 g/ha measured after 13 days under green house conditions; assay type: functional
# Zea mays [7] = experiment: Phytotoxicity against Zea mays (maize) plant at two to four-leaf growth stage at <2 g/ha measured after 13 days under green house conditions; assay type: organism-based; conditions: in vivo, 312 h
# Triticum aestivum [8] = experiment: Phytotoxicity against Triticum aestivum (wheat) at two to four-leaf growth stage at <2 g/ha measured after 13 days under green house conditions; assay type: organism-based; conditions: in vivo, 312 h
# Zea mays [9] = experiment: Phytotoxicity against Zea mays (maize) plant at two to four-leaf growth stage at 500 g/ha measured after 13 days under green house conditions; assay type: organism-based; conditions: in vivo, 312 h
# Sorghum halepense [10] = experiment: Post-emergent herbicidal activity against Sorghum halepense (Johnson grass) at <2 g/ha measured after 13 days under green house conditions; assay type: functional, organism-based
# Avena fatua [11] = experiment: Post-emergent herbicidal activity against Avena fatua at <2 g/ha measured after 13 days under green house conditions; assay type: functional, organism-based
# Echinochloa crus-galli [12] = experiment: Post-emergent herbicidal activity against Echinochloa crus-galli (barnyard grass) at 500 g/ha measured after 13 days under green house conditions; assay type: functional
# Setaria viridis [13] = experiment: Post-emergent herbicidal activity against Setaria viridis (green foxtail) at 500 g/ha measured after 13 days under green house conditions; assay type: functional
# Oryza sativa [14] = experiment: Phytotoxicity against Oryza sativa (rice) plant at two to four-leaf growth stage at <2 g/ha measured after 13 days under green house conditions; assay type: organism-based; conditions: in vivo, 312 h
# Triticum aestivum [15] = experiment: Phytotoxicity against Triticum aestivum (wheat) at two to four-leaf growth stage at 5 g/ha measured after 13 days under green house conditions; assay type: organism-based; conditions: in vivo, 312 h
# Avena fatua [16] = experiment: Post-emergent herbicidal activity against Avena fatua at 50 g/ha measured after 13 days under green house conditions; assay type: functional
# Sorghum halepense [17] = experiment: Post-emergent herbicidal activity against Sorghum halepense (Johnson grass) at 50 g/ha measured after 13 days under green house conditions; assay type: functional
# Avena fatua [18] = experiment: Post-emergent herbicidal activity against Avena fatua at 5 g/ha measured after 13 days under green house conditions; assay type: functional
# Sorghum halepense [19] = experiment: Post-emergent herbicidal activity against Sorghum halepense (Johnson grass) at 5 g/ha measured after 13 days under green house conditions; assay type: functional
# Oryza sativa [20] = experiment: Phytotoxicity against Oryza sativa (rice) plant at two to four-leaf growth stage at 50 g/ha measured after 13 days under green house conditions; assay type: organism-based; conditions: in vivo, 312 h
# Oryza sativa [21] = experiment: Phytotoxicity against Oryza sativa (rice) plant at two to four-leaf growth stage at 5 g/ha measured after 13 days under green house conditions; assay type: organism-based; conditions: in vivo, 312 h
# Setaria viridis [22] = experiment: Post-emergent herbicidal activity against Setaria viridis (green foxtail) at 50 g/ha measured after 13 days under green house conditions; assay type: functional
# Triticum aestivum [23] = experiment: Phytotoxicity against Triticum aestivum (wheat) at two to four-leaf growth stage at 50 g/ha measured after 13 days under green house conditions; assay type: organism-based; conditions: in vivo, 312 h
# Setaria viridis [24] = experiment: Post-emergent herbicidal activity against Setaria viridis (green foxtail) at 5 g/ha measured after 13 days under green house conditions; assay type: functional
# Zea mays [25] = experiment: Phytotoxicity against Zea mays (maize) plant at two to four-leaf growth stage at 50 g/ha measured after 13 days under green house conditions; assay type: organism-based; conditions: in vivo, 312 h
# Zea mays [26] = experiment: Phytotoxicity against Zea mays (maize) plant at two to four-leaf growth stage at 5 g/ha measured after 13 days under green house conditions; assay type: organism-based; conditions: in vivo, 312 h
# Echinochloa crus-galli [27] = experiment: Post-emergent herbicidal activity against Echinochloa crus-galli (barnyard grass) at 50 g/ha measured after 13 days under green house conditions; assay type: functional
# Echinochloa crus-galli [28] = experiment: Post-emergent herbicidal activity against Echinochloa crus-galli (barnyard grass) at 5 g/ha measured after 13 days under green house conditions; assay type: functional
Compound,Activity (Setaria viridis [1]),Activity (Oryza sativa [2]),Activity (Avena fatua [3]),Activity (Echinochloa crus-galli [4]),Activity (Triticum aestivum [5]),Activity (Sorghum halepense [6]),Activity (Zea mays [7]),Activity (Triticum aestivum [8]),Activity (Zea mays [9]),Activity (Sorghum halepense [10]),Activity (Avena fatua [11]),Activity (Echinochloa crus-galli [12]),Activity (Setaria viridis [13]),Activity (Oryza sativa [14]),other results
COC(=O)C(C)Oc1ccc(Oc2ccc3cc(Cl)ccc3n2)cc1 (racemic),inactive,85%,85%,inactive,85%,100%,Non-toxic,Non-toxic,100%,inactive,inactive,100%,100%,Non-toxic,–
COC(=O)C(C)Oc1ccc(Oc2ncc3cc(Cl)ccc3n2)cc1 (racemic),inactive,0%,0%,inactive,0%,85%,Non-toxic,Non-toxic,15%,inactive,inactive,85%,65%,Non-toxic,–
COC(=O)C(C)Oc1ccc(Oc2nnc3cc(Cl)ccc3n2)cc1 (racemic),inactive,0%,0%,inactive,0%,30%,Non-toxic,Non-toxic,0%,inactive,inactive,50%,50%,Non-toxic,–
CCOC(=O)C(C)Oc1ccc(N(C)c2cnc3cc(Cl)ccc3n2)cc1 (racemic),inactive,0%,0%,inactive,85%,85%,Non-toxic,Non-toxic,50%,inactive,inactive,85%,85%,Non-toxic,–
CCOC(=O)C(C)Oc1ccc(N(C)c2cc3ccc(Cl)cc3cn2)cc1 (racemic),inactive,0%,70%,inactive,85%,85%,Non-toxic,Non-toxic,100%,inactive,inactive,100%,85%,Non-toxic,–
COC(=O)C(C)Oc1ccc(N(C)c2ccc(C(F)(F)F)cn2)cc1 (racemic),inactive,0%,0%,inactive,30%,0%,Non-toxic,Non-toxic,30%,inactive,inactive,50%,0%,Non-toxic,–
COC(=O)C(C)Oc1ccc(N(C)c2ccc3cc(Cl)ccc3n2)cc1 (racemic),inactive,30%,70%,inactive,85%,100%,Non-toxic,Non-toxic,100%,inactive,inactive,100%,85%,Non-toxic,–
COC(=O)C(C)Oc1ccc(N(C)c2ccc(Cl)cc2Cl)cc1 (racemic),inactive,0%,0%,inactive,70%,85%,Non-toxic,Non-toxic,30%,inactive,inactive,85%,85%,Non-toxic,–
COC(=O)C(C)Oc1ccc(N(C)c2nnc3cc(Cl)ccc3n2)cc1 (racemic),inactive,–,–,inactive,–,–,Non-toxic,Non-toxic,–,inactive,inactive,–,–,Non-toxic,Activity (Triticum aestivum [15]): 70%; Activity (Avena fatua [16]): 85%; Activity (Sorghum halepense [17]): 100%; Activity (Avena fatua [18]): 50%; Activity (Sorghum halepense [19]): 50%; Activity (Oryza sativa [20]): 85%; Activity (Oryza sativa [21]): 0%; Activity (Setaria viridis [22]): 100%; Activity (Triticum aestivum [23]): 85%; Activity (Setaria viridis [24]): 100%; Activity (Zea mays [25]): 85%; Activity (Zea mays [26]): 70%; Activity (Echinochloa crus-galli [27]): 100%; Activity (Echinochloa crus-galli [28]): 0%
CCOC(=O)C(C)Oc1ccc(Oc2cc3ccc(Cl)cc3cn2)cc1 (racemic),inactive,70%,85%,inactive,85%,100%,Non-toxic,Non-toxic,70%,inactive,inactive,100%,85%,Non-toxic,–
CCOC(=O)C(C)Oc1ccc(Oc2nc3ccc(Cl)cc3o2)cc1 (racemic) [FENOXAPROP-ETHYL],inactive,–,–,inactive,–,–,Non-toxic,Non-toxic,–,inactive,inactive,–,–,Non-toxic,Activity (Avena fatua [16]): 85%; Activity (Sorghum halepense [17]): 100%; Activity (Oryza sativa [20]): 70%; Activity (Setaria viridis [22]): 100%; Activity (Triticum aestivum [23]): 0%; Activity (Zea mays [25]): 85%; Activity (Echinochloa crus-galli [27]): 100%
CCCCOC(=O)C(C)Oc1ccc(Oc2ccc(C(F)(F)F)cn2)cc1 (racemic),inactive,–,–,inactive,–,–,Non-toxic,Non-toxic,–,inactive,inactive,–,–,Non-toxic,Activity (Avena fatua [16]): 85%; Activity (Sorghum halepense [17]): 85%; Activity (Oryza sativa [20]): 50%; Activity (Setaria viridis [22]): 85%; Activity (Triticum aestivum [23]): 70%; Activity (Zea mays [25]): 85%; Activity (Echinochloa crus-galli [27]): 85%
CCOC(=O)C(C)Oc1ccc(Oc2cnc3cc(Cl)ccc3n2)cc1 (racemic) [QUIZALOFOP ETHYL ESTER],inactive,–,–,inactive,–,–,Non-toxic,Non-toxic,–,inactive,inactive,–,–,Non-toxic,Activity (Triticum aestivum [15]): 85%; Activity (Avena fatua [16]): 85%; Activity (Sorghum halepense [17]): 100%; Activity (Avena fatua [18]): 30%; Activity (Sorghum halepense [19]): 85%; Activity (Oryza sativa [20]): 70%; Activity (Oryza sativa [21]): 50%; Activity (Setaria viridis [22]): 100%; Activity (Triticum aestivum [23]): 85%; Activity (Setaria viridis [24]): 70%; Activity (Zea mays [25]): 100%; Activity (Zea mays [26]): 85%; Activity (Echinochloa crus-galli [27]): 100%; Activity (Echinochloa crus-galli [28]): 70%
COC(=O)C(C)Oc1ccc(Oc2ccc(Cl)cc2Cl)cc1 (racemic) [DICLOFOP-METHYL],inactive,0%,70%,inactive,0%,70%,Non-toxic,Non-toxic,85%,inactive,inactive,100%,100%,Non-toxic,–

# From ChEMBL document CHEMBL3045941, “-Methyl as a bioisostere for the oxygen link between the aromatic rings of aryloxyphenoxypropionate herbicides” (Bioorg Med Chem Lett, 1997)
